Experimental data from ChEMBL document CHEMBL4813925, “Antibacterial Drimane Sesquiterpenes from Aspergillus ustus” (J Nat Prod, 2021).
≈ marks a conversion by molar mass, not a printed value. Calls of active or inactive are those of the source. The rule behind the calls is not given here.

Tests used:
Bacillus subtilis [1] = experiment: Antibacterial activity against Bacillus subtilis ATCC 49343 assessed as bacterial growth inhibition by CLSI protocol based microbroth dilution method; format: functional
Staphylococcus aureus [2] = experiment: Antibacterial activity against multidrug-resistant Staphylococcus aureus ATCC BAA-44 assessed as bacterial growth inhibition by CLSI protocol based microbroth dilution method; format: functional
Enterococcus faecium [3] = experiment: Antibacterial activity against vancomycin-resistant Enterococcus faecium ATCC 700221 assessed as bacterial growth inhibition by CLSI protocol based microbroth dilution method; format: functional
Bacillus subtilis [4] = experiment: Synergistic antibacterial activity against Bacillus subtilis ATCC 49343 assessed as bacterial growth inhibition in presence of ustusoic-acidB; format: functional
Enterococcus faecium [5] = experiment: Synergistic antibacterial activity against vancomycin-resistant Enterococcus faecium ATCC 700221 assessed as bacterial growth inhibition in presence of ustusoic-acidB; format: functional
Staphylococcus aureus [6] = experiment: Synergistic antibacterial activity against multidrug-resistant Staphylococcus aureus ATCC BAA-44 assessed as bacterial growth inhibition in presence of ustusoic-acidB; format: functional
Bacillus subtilis [7] = experiment: Synergistic antibacterial activity against Bacillus subtilis ATCC 49343 assessed as coefficient of drug interaction in presence of Stromemycin; format: functional
Enterococcus faecium [8] = experiment: Synergistic antibacterial activity against vancomycin-resistant Enterococcus faecium ATCC 700221 assessed as coefficient of drug interaction in presence of Stromemycin; format: functional
Staphylococcus aureus [9] = experiment: Synergistic antibacterial activity against multidrug-resistant Staphylococcus aureus ATCC BAA-44 assessed as coefficient of drug interaction in presence of Stromemycin; format: functional
Candida albicans = experiment: Antifungal activity against Candida albicans ATCC 90027 assessed as fungal growth inhibition by CLSI protocol based microbroth dilution method; format: functional, organism-based
HCT-116 = experiment: Cytotoxicity against human HCT-116 cells by MTT assay; format: cell-based
Bacillus subtilis [10] = experiment: Synergistic antibacterial activity against Bacillus subtilis ATCC 49343 assessed as bacterial growth inhibition in presence of Stromemycin; format: functional
Enterococcus faecium [11] = experiment: Synergistic antibacterial activity against vancomycin-resistant Enterococcus faecium ATCC 700221 assessed as bacterial growth inhibition in presence of Stromemycin; format: functional
Staphylococcus aureus [12] = experiment: Synergistic antibacterial activity against multidrug-resistant Staphylococcus aureus ATCC BAA-44 assessed as bacterial growth inhibition in presence of Stromemycin; format: functional
Bacillus subtilis [13] = experiment: Synergistic antibacterial activity against Bacillus subtilis ATCC 49343 assessed as coefficient of drug interaction in presence of ustusoic-acidB; format: functional
Enterococcus faecium [14] = experiment: Synergistic antibacterial activity against vancomycin-resistant Enterococcus faecium ATCC 700221 assessed as coefficient of drug interaction in presence of ustusoic-acidB; format: functional
Staphylococcus aureus [15] = experiment: Synergistic antibacterial activity against multidrug-resistant Staphylococcus aureus ATCC BAA-44 assessed as coefficient of drug interaction in presence of ustusoic-acidB; format: functional

**Q.** Which MIC99 (Bacillus subtilis [1]) does the source give for `O=C(N[C@H](CO)[C@H](O)c1ccc([N+](=O)[O-])cc1)C(Cl)Cl` [CHLORAMPHENICOL] here?
**A.** 125 µg/mL (≈ 387 µM)

**Q.** How did the MIC (Staphylococcus aureus [2]; read-out: MIC) turn out when `CCC/C=C/C=C/CCc1cc(OC(=O)c2c(CC/C=C/C=C/CCC)cc(O)c([C@@H]3O[C@H](CO)[C@@H](O)[C@H](O)[C@H]3O)c2O)cc(O)c1C(=O)O` was run?
**A.** > 128 µg/mL

**Q.** What about the MIC (Enterococcus faecium [3]) of the same molecule?
**A.** > 128 µg/mL

**Q.** What about the MIC (Bacillus subtilis [1]) of the same molecule?
**A.** 64 µg/mL (≈ 91.8 µM)

**Q.** And the MIC (Bacillus subtilis [4])?
**A.** 8 µg/mL

**Q.** And the MIC (Enterococcus faecium [5])?
**A.** 32 µg/mL

**Q.** And the MIC (Staphylococcus aureus [6])?
**A.** 64 µg/mL

**Q.** What about the CI (Bacillus subtilis [7]) of the same molecule?
**A.** 0.0009

**Q.** And the CI (Enterococcus faecium [8])?
**A.** 0.00013

**Q.** And the CI (Staphylococcus aureus [9])?
**A.** 0.00014

**Q.** And the Activity (Candida albicans)?
**A.** inactive

**Q.** And the Activity (HCT-116)?
**A.** Non-Toxic

**Q.** How did the MIC (Staphylococcus aureus [2]; read-out: MIC100) turn out when `CN[C@H](CC(C)C)C(=O)N[C@H]1C(=O)N[C@@H](CC(N)=O)C(=O)N[C@H]2C(=O)N[C@H]3C(=O)N[C@H](C(=O)N[C@H](C(=O)O)c4cc(O)cc(O)c4-c4cc3ccc4O)[C@H](O)c3ccc(c(Cl)c3)Oc3cc2cc(c3O[C@@H]2O[C@H](CO)[C@@H](O)[C@H](O)[C@H]2O[C@H]2C[C@](C)(N)[C@H](O)[C@H](C)O2)Oc2ccc(cc2Cl)[C@H]1O` [VANCOMYCIN] was run?
**A.** 125 µg/mL (≈ 86.3 µM)

**Q.** Which results are given for `C/C=C/C=C/C=C/C(=O)O[C@@H]1C=C(CO)[C@](O)(C(=O)O)[C@@]2(C)CCCC(C)(C)[C@H]12`?
**A.** MIC (Staphylococcus aureus [2]; read-out: MIC): > 128 µg/mL; MIC (Enterococcus faecium [3]): 128 µg/mL (≈ 316 µM); MIC (Bacillus subtilis [1]): 64 µg/mL (≈ 158 µM)

**Q.** Which MIC99 (Enterococcus faecium [3]) does the source give for `O=C1CN(/N=C/c2ccc([N+](=O)[O-])o2)C(=O)N1` [NITROFURANTOIN] here?
**A.** 125 µg/mL (≈ 525 µM)

**Q.** For `C/C=C/C=C/C=C/C(=O)O[C@@H]1C=C(C=O)[C@](O)(C(=O)O)[C@@]2(C)CCCC(C)(C)[C@H]12`, which MIC (Staphylococcus aureus [2]; read-out: MIC) is on record?
**A.** > 128 µg/mL

**Q.** And the MIC (Enterococcus faecium [3])?
**A.** 67 µg/mL (≈ 166 µM)

**Q.** What about the MIC (Bacillus subtilis [1]) of the same molecule?
**A.** 38 µg/mL (≈ 94.4 µM)

**Q.** And the MIC (Bacillus subtilis [10])?
**A.** 8 µg/mL

**Q.** What about the MIC (Enterococcus faecium [11]) of the same molecule?
**A.** 32 µg/mL

**Q.** What about the MIC (Staphylococcus aureus [12]) of the same molecule?
**A.** 64 µg/mL

**Q.** And the CI (Bacillus subtilis [13])?
**A.** 0.0009

**Q.** What about the CI (Enterococcus faecium [14]) of the same molecule?
**A.** 0.00013

**Q.** And the CI (Staphylococcus aureus [15])?
**A.** 0.00014

**Q.** What about the Activity (Candida albicans) of the same molecule?
**A.** inactive

**Q.** What about the Activity (HCT-116) of the same molecule?
**A.** Non-Toxic
